# Assay results: patent US5010058A, “3,5,6-substituted derivatives of 1,2-O-isopropylidene-α,D-glucofuranose and intermediates for preparing these derivatives” (501 Greenwich Pharmaceuticals Incorporated, priority 1989, dated 1991)
# Read-outs that look alike come from different tables or passages of the source.
# Tests used:
# [1] = system: BUD-8 skin cell fibroblasts; experiment: Proliferation of BUD-8 skin cell fibroblasts (3H-thymidine uptake); type: cell-based, human; details: for 3H-Thymidine uptake by BUD-8 skin cells: triplicates ± SD
# Experimental: The human skin cell fibroblast line, BUD-8, was originally derived from the normal skin of a person and can now be obtained from the American Type Culture Collection.
# The number of BUD-8 cells was expanded for use by culture in 25 cm^2 flasks at 37° C. in an atmosphere of 5% CO2 in air. At approximately 4-5 five day intervals, or when confluence was reached, the cells were passaged. This was accomplished by detaching the cells with a Teflon scraper, washing and reseeding the cells at a lower density into fresh tissue culture flasks.
# The effect of these compound on the proliferative capacity of human BUD-8 skin fibroblasts was measured with the use of a ^3 H-thymidine incorporation assay using culture conditions which were similar to those used for the Con-A blastogenesis assay, described previously. Cultured skin cells were detached from the surface of tissue culture flasks mechanically with a Teflon scraper. The cells were washed, resuspended in incubation medium and the viabilities were determined. These cells were then plated in triplicate at a density of 2×10^3 cells/0.1 ml/microtiter well for the proliferation assays. […] Eighteen hours later, each of the BUD-8 cultures was examined morphologically for evidence of compound-induced toxicity such as cell rounding or granularity. The thymidine-pulsed cells were then precipitated and the amount of ^3 H-thymidine incorporation was counted in a liquid scintillation counter. […]
# (§1) ^a Experimental compounds were first suspended in DMSO or ethanol,
# ^b The effect of experimental compounds on the proliferation of BUD8
# [2] = system: normal spleen cells / splenic T-lymphocytes (Con-A stimulated); experiment: Con-A blastogenic response of normal spleen cells (3H-thymidine incorporation); type: cell-based, mouse (C57Bl/6); details: for Blastogenic response of normal spleen cells to Con-A: triplicates ± SD; for inhibition at 1 µg/mL / inhibition at 10 µg/mL / inhibition at 25 µg/mL / inhibition at 100 µg/mL / inhibition at 300 µg/mL / inhibition at 750 µg/mL: Mus musculus, T-lymphocyte, 72 h, percent change from no compound, read-out: Blastogenic response of normal spleen cells to Con-A, % effect
# Description: A simple method is used to screen compounds for their ability to modulate T-lymphocyte activity which comprises assessing the capacity of the compounds to alter the activation of murine spleen cells in response to T-lymphocyte mitogen activators, such as concanavalin-A (Con-A). The method used to measure the effects of the compounds of the present invention on the blastogenic response of spleen cells to the T-lymphocyte mitogen, (i.e., Con-A), is as follows.
# Spleen cells were removed from normal C57Bl/6 mice and homogenized to obtain a single cell suspension. Erythrocytes were lysed by hypotonic shock. Upon determination of the viability and concentration of the remaining lymphoid cells, they were adjusted to a concentration of 4×10^6 /ml. These spleen cells (2×10^5 cells per […]) were seeded into wells of microtiter plates with the compounds of the present invention having the following dose concentrations:
# Con-A was also added to these cultures at a final concentration of […]. These cells were cultured for 3 days at 37° C. in a humidified atmosphere of 5% CO2 in air. For the last 18 hours of culture, […] H-thymidine was added to each well. The cells were then precipitated by a multichannel harvester. The amount of ^3 H-thymidine incorporated by the cultured cells were measured in a liquid scintillation counter (Disintegrations per min., DPM). All assays were conducted in triplicate.
# The incubation medium used for the blastogenesis assays was RPMI-1640 medium containing 10% fetal bovine serum, […] streptomycin, 100 U/ml penicillin, […] Hepes buffer solution, 5×10^-5 M 2-mercaptoethanol and 2 mM glutamine.
# as §1
# ^b The effect of experimental compounds on the blastogenic response o
# [3] = system: leukotriene B4 (LTB4) secretion by BUD-8 skin cell fibroblasts; experiment: Secretion of LTB4 by BUD-8 skin cell fibroblasts (radioimmunoassay); type: cell-based, human; details: for LTB4 in supernatant of BUD-8 skin cells: triplicate ± SD
# Experimental: Levels of LTB4 in aliquots of BUD-8 skin cell cultures supernatants were quantified by radioimmunoassay. The cells were first plated in triplicate at a density of 1×10^4 cells/0.1 ml/microtiter well for the assay to quantitate LTB4. To these cells was added 0.1 ml incubation medium containing compound 80182, or nordihydroguaiaretic acid (NDGA) to inhibit leukotriene production. After 18 hours of culture, samples of the BUD-8 skin cell supernatants were collected from one set of microtiter plates and frozen until assayed for LTB4 content using a radioimmunoassay. Into a polypropylene tube were mixed 0.1 ml anti-LTB4, 0.1 ml^3 H-LTB4 and 0.1 ml LTB4 standard or LTB4 containing sample. The BUD-8 skin cell culture supernatants were used directly in the radioimmunoassay. The tubes were refrigerated overnight. A charcoal solution (0.5 ml of 0.5% charcoal Norit A) was added and each tube was centrifuged. The radio activity in the supernatant was then counted in a liquid scintillation counter. | ^a Experimental compounds were first suspended in DMSO or ethanol, | ^b The effect of experimental compounds on the amount of LTB4 in […]
# [4] = Con-A 1 ug/ml, compound 1 ug/ml
# [5] = Con-A 1 ug/ml, compound 10 ug/ml
# [6] = Con-A 1 ug/ml, compound 25 ug/ml
# [7] = Con-A 1 ug/ml, compound 100 ug/ml
# [8] = Con-A 1 ug/ml, compound 300 ug/ml
# [9] = Con-A 1 ug/ml, compound 750 ug/ml
# [10] = Con-A 4 ug/ml, compound 1 ug/ml
# [11] = Con-A 4 ug/ml, compound 10 ug/ml
# [12] = Con-A 4 ug/ml, compound 25 ug/ml
# [13] = Con-A 4 ug/ml, compound 100 ug/ml
# [14] = Con-A 4 ug/ml, compound 300 ug/ml
# [15] = Con-A 4 ug/ml, compound 750 ug/ml
smiles,measurement,setting,value
"CCCCCCCCCCCNCC(O)C1OC2OC(C)(C)OC2C1O [Ex. 2, 1,2-O-Isopropylidene-6-deoxy-6-aminoundecyl-α, D-glucofuranose]",anti-proliferative effect on skin cells,[1],anti-proliferative effect that was statistically significant
same,inhibition at 1 µg/mL,"[1]; Homo sapiens, Fibroblast, compound 1 ug/ml, percent change from no compound, read-out: 3H-Thymidine uptake by BUD-8 skin cells, % effect",1%
same,inhibition at 10 µg/mL,"[1]; Homo sapiens, Fibroblast, compound 10 ug/ml, percent change from no compound, read-out: 3H-Thymidine uptake by BUD-8 skin cells, % effect",46%
same,inhibition at 25 µg/mL,"[1]; Homo sapiens, Fibroblast, compound 25 ug/ml, percent change from no compound, read-out: 3H-Thymidine uptake by BUD-8 skin cells, % effect",77%
same,inhibition at 100 µg/mL,"[1]; Homo sapiens, Fibroblast, compound 100 ug/ml, percent change from no compound, read-out: 3H-Thymidine uptake by BUD-8 skin cells, % effect",89%
same,inhibition at 300 µg/mL,"[1]; Homo sapiens, Fibroblast, compound 300 ug/ml, percent change from no compound, read-out: 3H-Thymidine uptake by BUD-8 skin cells, % effect",90%
same,inhibition at 750 µg/mL,"[1]; Homo sapiens, Fibroblast, compound 750 ug/ml, percent change from no compound, read-out: 3H-Thymidine uptake by BUD-8 skin cells, % effect",85%
same,3H-Thymidine uptake by BUD-8 skin cells,[1]; compound 1 ug/ml,"6,069 ± 636 cpm"
same,3H-Thymidine uptake by BUD-8 skin cells,[1]; compound 10 ug/ml,"3,363 ± 227 cpm"
same,3H-Thymidine uptake by BUD-8 skin cells,[1]; compound 25 ug/ml,"1,430 ± 1,176 cpm"
same,3H-Thymidine uptake by BUD-8 skin cells,[1]; compound 100 ug/ml,649 ± 114 cpm
same,3H-Thymidine uptake by BUD-8 skin cells,[1]; compound 300 ug/ml,595 ± 110 cpm
same,3H-Thymidine uptake by BUD-8 skin cells,[1]; compound 750 ug/ml,911 ± 863 cpm
same,Blastogenic response of normal spleen cells to Con-A,[2]; [4],"13,581 ± 4,804 cpm"
same,Blastogenic response of normal spleen cells to Con-A,[2]; [5],"5,014 ± 89 cpm"
same,Blastogenic response of normal spleen cells to Con-A,[2]; [6],"3,312 ± 1,541 cpm"
same,Blastogenic response of normal spleen cells to Con-A,[2]; [7],"2,967 ± 964 cpm"
same,Blastogenic response of normal spleen cells to Con-A,[2]; [8],"2,934 ± 299 cpm"
same,Blastogenic response of normal spleen cells to Con-A,[2]; [9],"2,020 ± 651 cpm"
same,Blastogenic response of normal spleen cells to Con-A,[2]; [10],"18,607 ± 8,159 cpm"
same,Blastogenic response of normal spleen cells to Con-A,[2]; [11],"4,293 ± 3,517 cpm"
same,Blastogenic response of normal spleen cells to Con-A,[2]; [12],"1,635 ± 635 cpm"
same,Blastogenic response of normal spleen cells to Con-A,[2]; [13],"2,618 ± 444 cpm"
same,Blastogenic response of normal spleen cells to Con-A,[2]; [14],"2,787 ± 413 cpm"
same,Blastogenic response of normal spleen cells to Con-A,[2]; [15],"1,575 ± 480 cpm"
same,inhibition at 1 µg/mL,[2]; [4],81%
same,inhibition at 10 µg/mL,[2]; [5],93%
same,inhibition at 25 µg/mL,[2]; [6],95%
same,inhibition at 100 µg/mL,[2]; [7],96%
same,inhibition at 300 µg/mL,[2]; [8],96%
same,inhibition at 750 µg/mL,[2]; [9],97%
same,inhibition at 1 µg/mL,[2]; [10],81%
same,inhibition at 10 µg/mL,[2]; [11],96%
same,inhibition at 25 µg/mL,[2]; [12],98%
same,inhibition at 100 µg/mL,[2]; [13],97%
same,inhibition at 300 µg/mL,[2]; [14],97%
same,inhibition at 750 µg/mL,[2]; [15],98%
same,effect on LTB4 secretion / activity,[3],produced an effect upon the secretion of leukotriene B4
same,inhibition at 1 µg/mL,"[3]; Homo sapiens, Fibroblast, 18 h, compound 1 ug/ml, percent change from no compound, read-out: LTB4 secretion, % Effect",-15%
same,inhibition at 10 µg/mL,"[3]; Homo sapiens, Fibroblast, 18 h, compound 10 ug/ml, percent change from no compound, read-out: LTB4 secretion, % Effect",37%
same,inhibition at 25 µg/mL,"[3]; Homo sapiens, Fibroblast, 18 h, compound 25 ug/ml, percent change from no compound, read-out: LTB4 secretion, % Effect",58%
same,inhibition at 100 µg/mL,"[3]; Homo sapiens, Fibroblast, 18 h, compound 100 ug/ml, percent change from no compound, read-out: LTB4 secretion, % Effect",22%
same,inhibition at 300 µg/mL,"[3]; Homo sapiens, Fibroblast, 18 h, compound 300 ug/ml, percent change from no compound, read-out: LTB4 secretion, % Effect",60%
same,inhibition at 750 µg/mL,"[3]; Homo sapiens, Fibroblast, 18 h, compound 750 ug/ml, percent change from no compound, read-out: LTB4 secretion, % Effect",42%
same,calculated LTB4 secreted/10^5 BUD-8 cells,[3]; compound 1 ug/ml,862 pg LTB4 per 10^5 cells
same,LTB4 in supernatant of BUD-8 skin cells,[3]; compound 1 ug/ml,44.4 ± 3.8 pg LTB4 /100 ul supernatant
same,calculated LTB4 secreted/10^5 BUD-8 cells,[3]; compound 10 ug/ml,485 pg LTB4 per 10^5 cells
same,LTB4 in supernatant of BUD-8 skin cells,[3]; compound 10 ug/ml,24.6 ± 5.3 pg LTB4 /100 ul supernatant
same,calculated LTB4 secreted/10^5 BUD-8 cells,[3]; compound 25 ug/ml,303 pg LTB4 per 10^5 cells
same,LTB4 in supernatant of BUD-8 skin cells,[3]; compound 25 ug/ml,16.4 ± 2.0 pg LTB4 /100 ul supernatant
same,calculated LTB4 secreted/10^5 BUD-8 cells,[3]; compound 100 ug/ml,575 pg LTB4 per 10^5 cells
same,LTB4 in supernatant of BUD-8 skin cells,[3]; compound 100 ug/ml,30.1 ± 3.9 pg LTB4 /100 ul supernatant
same,calculated LTB4 secreted/10^5 BUD-8 cells,[3]; compound 300 ug/ml,281 pg LTB4 per 10^5 cells
same,LTB4 in supernatant of BUD-8 skin cells,[3]; compound 300 ug/ml,15.3 ± 1.1 pg LTB4 /100 ul supernatant
same,calculated LTB4 secreted/10^5 BUD-8 cells,[3]; compound 750 ug/ml,422 pg LTB4 per 10^5 cells
same,LTB4 in supernatant of BUD-8 skin cells,[3]; compound 750 ug/ml,22.4 ± 4.2 pg LTB4 /100 ul supernatant
